Results from the supplement of paper PMC9780213.

How the values were obtained:
Settings in all cases: treatment time: 24 h
U2OS-mOrange2-Peroxisome = test: cell count relative to DMSO control (panel B, lysosome/peroxisome/lipid stain) (fraction of control); higher = more cells (less toxicity)
Experimental: (§1)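 U2OS-derived cells in 384-well plates were treated for 24 h with a 7-point 2-fold dilution series (top dose 20 µM for most compounds; final max DMSO 1%), then fixed, stained in four marker panels and imaged on a Cellomics ArrayScan. Cell count per treatment (three replicate plates merged) is given as a fraction of DMSO control. Panel A used parental U2OS, panel B U2OS-mOrange2-Peroxisome, panel C1 U2OS-LMNB1-TUBA1B-ACTB (DRAQ5 nuclei).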

U2OS-LMNB1-TUBA1B-ACTB = test: cell count relative to DMSO control (panel C1, DRAQ5/ER stain) (fraction of control); higher = more cells (less toxicity)
Experimental: as §1

U2OS = test: cell count relative to DMSO control (panel A, nuclei/RNA/PMG/mitochondria stain) (fraction of control); higher = more cells (less toxicity)
Experimental: as §1

COc1ccc2cc1Oc1ccc(cc1)C[C@H]1c3cc(c(OC)cc3CCN1C)Oc1c(OC)c(OC)cc3c1[C@H](C2)N(C)CC3 [tetrandrine]
cell count
Settings | 0.3125 µM | 0.625 µM | 1.25 µM | 2.5 µM | 5 µM | 10 µM | 20 µM
U2OS | 0.949 | 1 | 1.01 | 0.97 | 0.905 | 0.781 | 0.631
U2OS-LMNB1-TUBA1B-ACTB | 1.04 | 1.06 | 1.06 | 1.05 | 0.976 | 0.796 | 0.639
U2OS-mOrange2-Peroxisome | 0.838 | 0.86 | 0.958 | 0.976 | 0.895 | 0.827 | 0.488

CC(C=CC(=O)NO)=C[C@@H](C)C(=O)c1ccc(N(C)C)cc1 [trichostatin-a]
cell count
Settings | 0.3125 µM | 0.625 µM | 1.25 µM | 2.5 µM | 5 µM | 10 µM | 20 µM
U2OS | 0.888 | 0.737 | 0.497 | 0.466 | 0.427 | 0.258 | 0.142
U2OS-LMNB1-TUBA1B-ACTB | 1.04 | 0.942 | 0.773 | 0.619 | 0.639 | 0.517 | 0.314
U2OS-mOrange2-Peroxisome | 0.582 | 0.501 | 0.516 | 0.585 | 0.605 | 0.228 | 0.0857

Cn1c(CCCC(=O)O)nc2cc(N(CCCl)CCCl)ccc21 [bendamustine]
cell count
Settings | 0.3125 µM | 0.625 µM | 1.25 µM | 2.5 µM | 5 µM | 10 µM | 20 µM
U2OS | 0.945 | 0.814 | 0.265 | 0.1 | 0.145 | 0.133 | 0.162
U2OS-LMNB1-TUBA1B-ACTB | 1.02 | 1.03 | 0.607 | 0.26 | 0.277 | 0.264 | 0.284
U2OS-mOrange2-Peroxisome | 0.462 | 0.439 | 0.374 | 0.371 | 0.366 | 0.422 | 0.454

COc1ccc(C[C@H](N)C(=O)N[C@H]2[C@@H](O)[C@H](n3cnc4c(N(C)C)ncnc43)O[C@@H]2CO)cc1 [puromycin]
cell count
Settings | 0.07812 µM | 0.15625 µM | 0.3125 µM | 0.625 µM | 1.25 µM | 2.5 µM | 5 µM
U2OS | 1.06 | 1.05 | 1.03 | 1.06 | 0.995 | 1.03 | 0.957
U2OS-LMNB1-TUBA1B-ACTB | 1.1 | 0.997 | 1.11 | 1.13 | 0.957 | 1.02 | 1.02
U2OS-mOrange2-Peroxisome | 1.01 | 0.924 | 1.07 | 1.09 | 1.11 | 1.29 | 1.52

O=C(N/N=C/c1ccc(O)c(O)c1)c1cc2ccccc2cc1O [dynasore]
cell count
Settings | 0.3125 µM | 0.625 µM | 1.25 µM | 2.5 µM | 5 µM | 10 µM | 20 µM
U2OS | 0.981 | 1.01 | 0.925 | 1.02 | 0.867 | 0.807 | 0.638
U2OS-LMNB1-TUBA1B-ACTB | 1.02 | 1.05 | 1.06 | 1.12 | 0.953 | 0.966 | 0.826
U2OS-mOrange2-Peroxisome | 0.779 | 0.85 | 0.742 | 1.03 | 0.645 | 0.497 | 0.501

CCc1c2c(nc3ccc(OC(=O)N4CCC(N5CCCCC5)CC4)cc13)-c1cc3c(c(=O)n1C2)COC(=O)[C@]3(O)CC [irinotecan]
cell count
Settings | 0.3125 µM | 0.625 µM | 1.25 µM | 2.5 µM | 5 µM | 10 µM | 20 µM
U2OS | 0.95 | 0.795 | 0.732 | 0.665 | 0.64 | 0.592 | 0.612
U2OS-LMNB1-TUBA1B-ACTB | 0.966 | 0.998 | 0.849 | 0.82 | 0.79 | 0.694 | 0.66
U2OS-mOrange2-Peroxisome | 0.759 | 0.66 | 0.641 | 0.621 | 0.666 | 0.771 | 0.742

Cc1ccc(S(=O)(=O)c2ccc([N+](=O)[O-])o2)cc1
cell count
Settings | 0.15625 µM | 0.3125 µM | 0.625 µM | 1.25 µM | 2.5 µM | 5 µM | 10 µM
U2OS | 1.02 | 0.974 | 1.04 | 1.05 | 1.01 | 0.917 | 0.886
U2OS-LMNB1-TUBA1B-ACTB | 1.01 | 1.1 | 1.02 | 1.12 | 1.1 | 1.02 | 0.982
U2OS-mOrange2-Peroxisome | 0.927 | 0.934 | 0.938 | 0.864 | 1.16 | 0.964 | 0.837

COc1ccc(C2CNC(=O)C2)cc1OC1CCCC1 (stereo unspecified) [rolipram]
cell count
Settings | 0.3125 µM | 0.625 µM | 1.25 µM | 2.5 µM | 5 µM | 10 µM | 20 µM
U2OS | 1.04 | 1.07 | 0.964 | 0.96 | 0.915 | 1 | 0.959
U2OS-LMNB1-TUBA1B-ACTB | 0.979 | 1.14 | 0.963 | 1.03 | 1.01 | 1.02 | 1.01
U2OS-mOrange2-Peroxisome | 0.884 | 0.894 | 1 | 0.96 | 1.13 | 0.726 | 1

CC(=O)N[C@@H](CC(C)C)C(=O)N[C@@H](CC(C)C)C(=O)N[C@H](C=O)CCCN=C(N)N [leupeptin]
cell count
Settings | 0.3125 µM | 0.625 µM | 1.25 µM | 2.5 µM | 5 µM | 10 µM | 20 µM
U2OS | 1.07 | 1.09 | 0.933 | 1.09 | 1.04 | 1.03 | 1.01
U2OS-LMNB1-TUBA1B-ACTB | 1.07 | 1.1 | 1.06 | 1.16 | 1.05 | 1.02 | 1.01
U2OS-mOrange2-Peroxisome | 0.839 | 0.806 | 0.749 | 0.771 | 0.895 | 0.952 | 1.27

C=C1[C@@H](C)[C@H]2[C@H](Cc3ccccc3)NC(=O)[C@]23[C@H](OC(C)=O)/C=C/[C@@](C)(O)C(=O)[C@@H](C)C/C=C/[C@H]3[C@@H]1O [cytochalasin-d]
cell count
Settings | 0.000781 µM | 0.0015625 µM | 0.003125 µM | 0.00625 µM | 0.0125 µM | 0.025 µM | 0.05 µM
U2OS | 0.938 | 0.944 | 0.899 | 1 | 0.643 | 0.463 | 0.403
U2OS-LMNB1-TUBA1B-ACTB | 1.08 | 1.04 | 1.04 | 0.821 | 0.499 | 0.374 | 0.356
U2OS-mOrange2-Peroxisome | 0.993 | 1.12 | 1.29 | 1.24 | 0.826 | 0.656 | 0.602

CC(NC(=O)c1ccccc1/N=C/c1c(O)ccc2ccccc12)c1ccccc1 (stereo unspecified) [sirtinol]
cell count
Settings | 0.3125 µM | 0.625 µM | 1.25 µM | 2.5 µM | 5 µM | 10 µM | 20 µM
U2OS | 0.858 | 0.782 | 0.659 | 0.462 | 0.195 | 0.192 | 0.17
U2OS-LMNB1-TUBA1B-ACTB | 0.886 | 0.842 | 0.727 | 0.552 | 0.338 | 0.357 | 0.367
U2OS-mOrange2-Peroxisome | 0.607 | 0.507 | 0.491 | 0.365 | 0.37 | 0.373 | 0.339

COc1cccc2c1C(=O)c1c(O)c3c(c(O)c1C2=O)C[C@@](O)(C(=O)CO)C[C@@H]3O[C@H]1C[C@H](N)[C@H](O)[C@H](C)O1 [doxorubicin]
cell count
Settings | 0.07812 µM | 0.15625 µM | 0.3125 µM | 0.625 µM | 1.25 µM | 2.5 µM | 5 µM
U2OS | 0.933 | 1.03 | 0.932 | 0.836 | 0.84 | 0.754 | 0.34
U2OS-LMNB1-TUBA1B-ACTB | 1.08 | 1.17 | 1.12 | 1.23 | 0.925 | 0.807 | 0.624
U2OS-mOrange2-Peroxisome | 0.712 | 0.735 | 0.747 | 0.899 | 0.86 | 1.1 | 0.37

C[C@H]1CCC/C=C/[C@@H]2C[C@H](O)C[C@H]2[C@H](O)/C=C/C(=O)O1 [brefeldin-a]
cell count
Settings | 0.3125 µM | 0.625 µM | 1.25 µM | 2.5 µM | 5 µM | 10 µM | 20 µM
U2OS | 0.543 | 0.545 | 0.527 | 0.584 | 0.586 | 0.644 | 0.577
U2OS-LMNB1-TUBA1B-ACTB | 0.698 | 0.697 | 0.661 | 0.616 | 0.632 | 0.584 | 0.529
U2OS-mOrange2-Peroxisome | 0.53 | 0.567 | 0.55 | 0.574 | 0.515 | 0.544 | 0.557

O=c1[nH]c(=O)n([C@H]2C[C@H](O)[C@@H](CO)O2)cc1F [floxuridine]
cell count
Settings | 0.3125 µM | 0.625 µM | 1.25 µM | 2.5 µM | 5 µM | 10 µM | 20 µM
U2OS | 0.806 | 0.815 | 0.744 | 0.681 | 0.609 | 0.58 | 0.558
U2OS-LMNB1-TUBA1B-ACTB | 1.06 | 1 | 0.979 | 0.737 | 0.792 | 0.929 | 0.892
U2OS-mOrange2-Peroxisome | 1.52 | 1.54 | 1.34 | 1.14 | 1.11 | 0.829 | 1.31

C=CCNC1=C2C[C@@H](C)C[C@H](OC)[C@H](O)[C@@H](C)/C=C(\C)[C@H](OC(N)=O)[C@@H](OC)/C=C\C=C(/C)C(=O)NC(=CC1=O)C2=O [tanespimycin]
cell count
Settings | 0.07812 µM | 0.15625 µM | 0.3125 µM | 0.625 µM | 1.25 µM | 2.5 µM | 5 µM
U2OS | 1 | 0.976 | 0.929 | 0.901 | 0.686 | 0.307 | 0.0406
U2OS-LMNB1-TUBA1B-ACTB | 1.06 | 1.03 | 1.06 | 0.956 | 0.938 | 0.501 | 0.0736
U2OS-mOrange2-Peroxisome | 1.48 | 0.803 | 0.767 | 0.7 | 0.405 | 0.144 | 0.148

COc1cc(-n2c(=S)[nH]c3ccccc3c2=O)c(Cl)cc1Cl [mdivi-1]
cell count
Settings | 0.3125 µM | 0.625 µM | 1.25 µM | 2.5 µM | 5 µM | 10 µM | 20 µM
U2OS | 1.02 | 0.927 | 1.04 | 1.01 | 1 | 0.643 | 1.04
U2OS-LMNB1-TUBA1B-ACTB | 1.02 | 1.01 | 1.08 | 1.03 | 1.02 | 0.74 | 1.09
U2OS-mOrange2-Peroxisome | 0.787 | 0.837 | 0.803 | 1.03 | 1.03 | 0.618 | 0.921
